Test results as given in patent publication US20120214760A1, “TREATMENT OF URINARY TRACT INFECTIONS WITH ANTIBACTERIAL AMINOGLYCOSIDE COMPOUNDS” (Achaogen, Inc., priority 2009, published 2012).
Converted amounts (≈) assume the structure as drawn.

What was measured:
[1] = test system: S. aureus ATCC 33591, MRSA; experiment: Murine neutropenic thigh model; format: in vivo
Experimental: FIG. 4 is a line graph showing dose-responses of Example 1, arbekacin, gentamicin, vancomycin, and daptomycin in a murine neutropenic thigh model against an MRSA (ATCC 33591). Activity is presented as the log10 difference in CFU/thigh after 24 hours of antibiotic treatment compared to CFU/thigh just prior to antibiotic treatment (2 hours post-infection). Total dose per 24 hours is shown; dosing was q12 hours. 6 mice per group, Inoculum=1.2×10^3 CFU.
(§1) The in vivo activity of Example 1 in the mouse neutropenic thigh model (Andes and Craig. Antimicrob Agents Chemother. 2002, 46:1665-1670) was determined against seven bacterial strains including susceptible Escherichia coli and Klebsiella pneumoniae; multi-drug resistant (MDR) clinical isolates of E. coli and K. pneumoniae that display resistance to multiple antibiotics (including AGs); MRSA; and two K. pneumoniae carbapenemases (KPC)-expressing strains (see Table 5). For this efficacy model, groups of six CD-1 mice were rendered neutropenic by two intraperitoneal injections of cyclophosphamide. The first injection was 150 mg/kg three days prior to infection (day −4), and the second injection was 100 mg/kg one day prior to infection (day −1). On study day 0, animals were inoculated intramuscularly (0.1 ml) with a known number of colony forming units (CFU) of the specified bacterial strain (ATCC 25922, AECO 1003, ATCC 43816, AKPN 1073, AKPN 1109, ATCC 33591 or ASMA 1030), tailored to the virulence of each strain in the model to maximize bacterial load while avoiding mortality in the untreated control arms. Antibiotics were administered via subcutaneous injection at 2 and 14 hours after bacterial challenge. At 26 hours, infected thigh tissue was harvested, homogenized, and plated to count CFU. Untreated control animals were harvested at 2 hours post-infection to assess the initial bacterial load and at 26 hours post-infection to measure growth in the absence of antibiotic treatment.

[2] = test system: E. coli AECO040, AAC(6′)-I; experiment: MIC, aminoglycoside resistant strain; format: cell-based; conditions: Table 3
Experimental: (§2) Minimum inhibitory concentrations (MIC) were determined by reference Clinical and Laboratory Standards Institute (CLSI) broth microdilution methods per M7-A7 [2006]. Quality control ranges utilizing E. coli ATCC 25922, P. aeruginosa ATCC 27853 and S. aureus ATCC 29213, and interpretive criteria for comparator agents were as published in CLSI M100-S17 [2007]. Briefly, serial two-fold dilutions of the test compounds were prepared at 2× concentration in Mueller Hinton Broth. The compound dilutions were mixed in 96-well assay plates in a 1:1 ratio with bacterial inoculum. The inoculum was prepared by suspension of a colony from an agar plate that was prepared the previous day. Bacteria were suspended in sterile saline and added to each assay plate to obtain a final concentration of 5×10^5 CFU/mL. The plates were incubated at 35° C. for 20 hours in ambient air.
(§3) These MIC assays were conducted following the same protocol as set forth in Example 110. As shown, substituted sisomicin derivatives with groups other than methyl at the 6′-position have improved activity against strains expressing the AAC6′-modifying enzymes.

[3] = test system: S. marcescens ASMA003, ANT(2″) + AAC(6′); experiment: MIC, aminoglycoside resistant strain; format: cell-based; conditions: Table 3
Experimental: as §2, §3

[4] = test system: A. calcoaceticus AACA005, AAC(6′)-I; experiment: MIC, aminoglycoside resistant strain; format: cell-based; conditions: Table 3
Experimental: as §2, §3

[5] = test system: K. pneumoniae ATCC 43816, Susceptible; experiment: MIC of thigh model strain; format: cell-based; conditions: Klebsiella pneumoniae, ATCC43816; Table 5; K. pneumoniae Susceptible ATCC 43816
Experimental: as §2

[6] = test system: K. pneumoniae AKPN 1109, KPC; experiment: MIC of thigh model strain; format: cell-based; conditions: Klebsiella pneumoniae; Table 5; K. pneumoniae KPC AKPN 1109
Experimental: as §2

[7] = test system: S. marcescens ASMA 1030, KPC; experiment: MIC of thigh model strain; format: cell-based; conditions: Serratia marcescens; Table 5; S. marcescens KPC ASMA 1030
Experimental: as §2

[8] = test system: K. pneumoniae AKPN 1073, MDR; experiment: MIC of thigh model strain; format: cell-based; conditions: Klebsiella pneumoniae; Table 5; K. pneumoniae MDR AKPN 1073
Experimental: as §2

E. coli AECO 1003, MDR = experiment: Murine neutropenic thigh model; format: in vivo
Experimental: Activity is presented as the log10 difference in CFU/thigh after 24 hours of antibiotic treatment compared to CFU/thigh just prior to antibiotic treatment (2 hours post-infection). Total dose per 24 hours is shown; dosing was q12 hours. 6 mice per group. Inoculum=1.5×10^3 CFU.
as §1

[9] = test system: K. pneumoniae ATCC 43816, Susceptible; experiment: Murine neutropenic thigh model; format: in vivo
Experimental: as §1

[10] = test system: S. marcescens ASMA 1030, KPC; experiment: Murine neutropenic thigh model; format: in vivo
Experimental: as §1

[11] = test system: E. coli ATCC 25922, Susceptible; experiment: Murine neutropenic thigh model; format: in vivo
Experimental: as §1

Pathogens (169 in total) = experiment: Susceptibility testing, all urinary tract infection isolates; format: cell-based; conditions: all isolates
Experimental: as §2
In order to determine the activity of representative antibacterial aminoglycoside compounds against bacterial species that commonly cause complicated urinary tract infections worldwide, isolates were collected from 47 medical centers in the U.S. and Europe (10 countries) from urine or blood culture with the source of bacteremia documented as a urinary tract infection. Strains were susceptibility tested against Example 1, gentamicin, amikacin and 10 comparators by CLSI broth microdilution. These MIC assays were conducted following the same protocol as set forth in Example 110. Pathogens (169 in total) included E. coli, Klebsiella spp., Enterobacter spp., Citrobacter spp., P. mirabilis, M. Morganii, P. aeruginosa, S. aureus and S. saprophyticus.

[12] = test system: K. pneumoniae AKPN 1073, MDR; experiment: Murine neutropenic thigh model; format: in vivo
Experimental: FIG. 2 is a line graph showing dose-responses of Example 1, gentamicin, and imipenem (positive control) in a murine neutropenic thigh model against an AG-resistant clinical isolate of K. pneumoniae (AKPN 1073). Activity is presented as the log10 difference in CFU/thigh after 24 hours of antibiotic treatment compared to CFU/thigh just prior to antibiotic treatment (2 hours post-infection). Total dose per 24 hours is shown; dosing was q12 hours. 6 mice per group. Inoculum=1.3×10^4 CFU.
as §1

CN[C@@H]1[C@@H](O)[C@@H](O[C@@H]2[C@@H](O)[C@H](O[C@H]3OC(CNCCO)=CC[C@H]3N)[C@@H](N)C[C@H]2NC(=O)[C@@H](O)CCN)OC[C@]1(C)O [Example 1, 6′-(2-Hydroxy-ethyl)-1-(4-amino-2(S)-hydroxy-butyryl)-sisomicin]
ED50/MIC ([1]; S. aureus ATCC 33591): 4.8-9.7 | ED50 ([1]; Staphylococcus aureus, sc, neutropenic CD-1 mice, subcutaneous at 2 and 14 hours, S. aureus ATCC 33591): 38.7 mg/kg | bacterial load after 24 hours of treatment versus initial bacterial load at 2 hours post-inoculation ([1]; two highest dosages, challenge 1.2×10^3 CFU ATCC 33591, FIG. 4): reduced to below the initial bacterial load | MIC AECO040 [2]: 0.5 µg/mL (≈ 0.844 µM) | MIC ASMA003 [3]: 2 µg/mL (≈ 3.37 µM) | MIC AACA005 [4]: 2 µg/mL (≈ 3.37 µM) | MIC [5]: 0.5 µg/mL | MIC [6]: 0.25 to 0.5 µg/mL | MIC [7]: 1 µg/mL | MIC [8]: 0.5 µg/mL | ED50/MIC (E. coli AECO 1003, MDR; E. coli AECO 1003): 14.6 | ED50 (E. coli AECO 1003, MDR; Escherichia coli, sc, neutropenic CD-1 mice, subcutaneous at 2 and 14 hours, E. coli AECO 1003): 14.6 mg/kg | bacterial titer after 24 hours of treatment versus initial bacterial load at 2 hours post-inoculation (E. coli AECO 1003, MDR; highest dosage, challenge 1.5×10^3 CFU AECO 1003, FIG. 1): reduced to below the initial bacterial load | ED50/MIC [9]: 7.4 | ED50 ([9]; Klebsiella pneumoniae, ATCC43816, sc, neutropenic CD-1 mice, subcutaneous at 2 and 14 hours): 3.7 mg/kg | ED50/MIC [10]: 16.5 | ED50 ([10]; Serratia marcescens, sc, neutropenic CD-1 mice, subcutaneous at 2 and 14 hours): 16.5 mg/kg | ED50/MIC [11]: 8.4 | ED50 ([11]; Escherichia coli, ATCC25922, sc, neutropenic CD-1 mice, subcutaneous at 2 and 14 hours): 8.4 mg/kg | % of strains inhibited (Pathogens (169 in total); at ≦4 μg/ml): 90.5% | % of strains inhibited (Pathogens (169 in total); at ≦16 μg/ml): 98.8% | ED50/MIC ([12]; K. pneumoniae AKPN 1073): 6.6 | ED50 ([12]; Klebsiella pneumoniae, sc, neutropenic CD-1 mice, subcutaneous at 2 and 14 hours, K. pneumoniae AKPN 1073): 3.3 mg/kg | bacterial load after 24 hours of treatment versus initial bacterial load at 2 hours post-inoculation ([12]; two highest dosages, challenge 1.3×10^4 CFU AKPN 1073, FIG. 2): reduced to below the level of the initial bacterial load
